Data: patent US20110124607A1, “COMPOSITION FOR REGULATION CELLULAR SENESCENCE COMPRISING LYSOPHOSPHATIDIC ACID AND INHIBITOR OF ADENYLYL CYCLASE AS ACTIVE INGREDIENTS” (priority 2008, published 2011)

Tests used:
p21waf1/cip1 [1] = assay: Immunofluorescent staining of p21; assay type: cell-based, human; details: 30 μM LPA, 300 μM ACI, day 2 and day 4
Protocol: (§1) FIG. 3 is a set of photographs illustrating the effect of LPA and ACI on the expressions of p21 and cyclin-D1 in young and senescent cells. Particularly, a-f, g-l and m-r are photographs illustrating that sub-cultured young cells (PD 20: Y) and senescent cells (PD 65: S) were serum-starved for 48 hours respectively, followed by treatment of LPA (a-f) and ACI (g-l) singly or together (m-r), and after culturing for 1, 2, and 4 days, the cells were fixed in 4% hydrogen peroxide, and stained with p21waf1/cip1 (A) and cyclin D1 (B) antibodies, followed by confirming immunofluorescence. At this time, nucleus was stained with DAPI.
(§2) Coverslips were placed on 24 well plate on which required amounts of young and senescent cells were distributed. Media were eliminated and the treated cells were washed with PBS twice. Then, the cells were fixed with 4% hydrogen peroxide. Non-specific protein staining was blocked using PBS containing 2% BSA (blocking serum). The cells were stained with primary antibody such as anti-AMPKα, anti-p-Thr172-AMPKα, anti-p-Ser485/491-AMPKα, anti-p53, anti-p-Ser15-p53, anti-p21waf1/cip1, and anti-cyclin D1. To stain nucleus, DAPI (1:1000) was also added, followed by observation under Zeiss LSM 510 laser scanning microscope.
Cells were treated with 30 μM of LPA, 300 μM of ACI or LPA+ACI for 4 days, followed by immunofluorescence to investigate p21 and cyclin D1 expressions (FIG. 3A). As a result, when young cells were treated with ACI alone or LPA+ACI, p21 expression was increased on day 2 and day 4 (FIG. 3A).

cyclin D1 = assay: Immunofluorescent staining of cyclin D1; assay type: cell-based, human; details: 30 μM LPA
Protocol: as §1
as §2, with “microscope. […]” for “microscope.”

p21waf1/cip1 [2] = assay: Immuno-blotting of p21waf1/cip1; assay type: cell-based, human; details: for p21 expression after suppressing PKA: senescent cells pre-treated with 10 mM PKA inhibitor Rp-cAMP for one hour; for p21 expression (immuno-blotting): senescent cells, 30 μM LPA, 300 μM ACI, 10 mM AMPKI, 10 mM AICAR
Protocol: (§3) (A) and (B): Young and senescent cells were serum-starved for 2 days, followed by treatment with 10 mM of AMPK inhibitor […]) or 10 mM of AMPK activator AICAR(B) for 4 days. Proteins were extracted from the treated cells and the levels of AMPKα and p-Thr172-AMPKα, total p53, p-Ser15-p53 and […] measured by immuno-blotting. (C) and (D): Young cells (C) and senescent cells (D) were treated with 10 mM AMPKI or 10 mM AICAR and cultured for 4 days, followed by measurement of cell proliferation by cell counting. At this time, the experiment was repeated three times (p<0.001). (A) and (B) are photographs illustrating the results of immuno-blotting. Precisely, sub-cultured young cells (PD 18: A) and senescent cells (PD 64: B) were treated with 30 μM of LPA […] and ACI singly or together, followed by further culture for 1, 2, and 4 days. Proteins were extracted from the cultured cells and the levels of AMPKα, […] β-actin were quantified by immuno-blotting. (A) and (B) are photographs illustrating the results of immuno-blotting. Precisely, senescent cells (PD 64) were pre-treated with 10 mM of PKA inhibitor Rp-cAMP for one hour, followed by treatment with LPA(A) or ACI(B). After culturing the cells for 1, 2, and 4 days, proteins were extracted from the cultured cells and the levels of AMPKα, […] β-actin were quantified by immuno-blotting using 45 μg of the protein. To analyse protein expression, human fibroblasts were lysed in cold lysis buffer (25 mM Hepes, pH 8.0, 150 mM NaCl, 1 mM EDTA, 1 mM Na3VO4, 1 mM NaF, 1% Triton X-100 and protease inhibitors), followed by centrifugation at 4° C. at 9,000 rpm for 10 minutes to obtain supernatant. Protein in the extract was quantified […]. SDS-PAGE electrophoresis was performed with equal amount of the protein (45 μg) to separate. The separated protein was transferred onto NC membrane from the electrophoresis gel. Non-specific protein binding was blocked by blocking the blot (transferred NC membrane) using TTBS […] containing 5% skim milk for one hour. Then, antigen-antibody reaction was induced with diluted primary antibody at 4° C. for overnight. The blot was washed with TTBS, followed by reaction with horseradish peroxidase conjugated anti-IgGs diluted in TTBS containing 5% skim milk (1:5000) at room temperature for one hour. The blot was washed again with TTBS to eliminate non-specific binding of antigen-antibody. Photographs were developed/printed on X-ray film (Kodak) using ECL kit (Pierce) containing peroxidase substrate to identify each protein.

p-Thr172-AMPKα = assay: Immuno-blotting of p-Thr172-AMPKα; assay type: cell-based, human; details: for p-Thr172-AMPKα expression after suppressing PKA: senescent cells pre-treated with 10 mM PKA inhibitor Rp-cAMP for one hour; for Thr172-AMPKα phosphorylation: 30 μM LPA, 300 μM ACI, 10 mM AMPKI, 10 mM AICAR, up to day 4
Protocol: as §3

[3] = system: senescent cells (human fibroblasts); assay: Microscope observation of morphology of senescent cells; assay type: cell-based; details: day 4
Protocol: In the meantime, when senescent cells were treated with ACI, p21 expression was reduced on day 2 and day 4. […] Microscope observation also confirmed that young cell like cells were increased compared with the control (untreated senescent cells are bigger in size, so that less cells can be observed under microscope, compared with treated senescent cells). […] So was cyclin D1 expression (FIG. 3B). […] Thus, when senescent cells were treated with ACI, p21 and cyclin D1 expressions were reduced and thereby DNA synthesis in senescent cell increased to induce cell proliferation.

p-Ser15-p53 = assay: Immuno-blotting of p-Ser15-p53; assay type: cell-based, human; details: for p-Ser15-p53 expression after suppressing PKA: senescent cells pre-treated with 10 mM PKA inhibitor Rp-cAMP for one hour; for p-Ser15-p53 expression: senescent cells, 30 μM LPA, 300 μM ACI, 10 mM AMPKI, 10 mM AICAR
Protocol: as §3

| Molecule | p21 expression (immunofluorescence) (p21waf1/cip1 [1]; senescent cells) | p21 expression (immunofluorescence) (p21waf1/cip1 [1]; young cells) | cyclin D1 expression (immunofluorescence) (cyclin D1; senescent cells, 300 μM ACI) | p21 expression after suppressing PKA (p21waf1/cip1 [2]) | p21 expression (immuno-blotting) (p21waf1/cip1 [2]) | p-Thr172-AMPKα expression after suppressing PKA (p-Thr172-AMPKα) | Thr172-AMPKα phosphorylation (p-Thr172-AMPKα; senescent cells) | Thr172-AMPKα phosphorylation (p-Thr172-AMPKα; young cells) | change of senescent cells into young cell like cells [3] | p-Ser15-p53 expression after suppressing PKA (p-Ser15-p53) | p-Ser15-p53 expression (p-Ser15-p53) | cyclin D1 expression (immunofluorescence) (cyclin D1; young cells) |
| --- | --- | --- | --- | --- | --- | --- | --- | --- | --- | --- | --- | --- |
| Nc1ncnc2c1ncn2C1CCCO1 (centres unmarked) [ACI, 9-(tetrahydro-2′-furyl)adenine] | reduced | increased | reduced | not changed | reduced | not changed | reduced | began to increase | most cells were changed into young cell like cells | not changed | reduced | – |
| lysophosphatidic acid [LPA] | – | decrease | – | not changed at all | reduced | not changed at all | reduced | reduced | – | not changed at all | reduced | decrease |
